Our source for the GI50 and TGI values is PubChem BioAssay (NCI).

Several values for one entry are separate records, joined by “and”; a condition that tells them apart may be missing. Identical values can stand only once.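 Test compounds were applied to cells in 96-well plates for 48 hours at 5 doses. Abbreviation: GI50, concentration required for 50% inhibition of growth. TGI denotes the concentration required for complete inhibition of growth.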

What all share (test): NCI tumour cell line growth inhibition, 48 h
Assay [1] relates to SK-MEL-2 melanoma.
The subject of assay [2] is TK-10 renal.
In assay [3] the test system is OVCAR-8 ovarian.
In assay [4] the test system is COLO 205 colon.
Assay [5] relates to EKVX NSCLC.
Assay [6] relates to UACC-257 melanoma.
Assay [7] deals with UACC-62 melanoma.
Assay [8] relates to ACHN renal.
Assay [9] concerns DU-145 prostate.
The subject of assay [10] is NCI-H23 lung.

As to `O=S(=O)(NCCCNc1nccc(-c2c(-c3ccc(O)cc3)nc3sccn23)n1)c1ccc(F)cc1`, the GI50 in assay [1] is 1.18 µM; in assay [2] it was 4.48 µM; in assay [3] it was 1.57 µM; in assay [4], 0.0527 µM; in assay [5] it was 2.91 µM; in assay [6], 0.134 µM. The GI50 was 0.0245 µM in [7], 2.09 µM in assay [8], 2.52 µM in assay [9] and 2.24 µM in assay [10]. Besides, the TGI is 2.81 µM in assay [1]; 32.2 µM in assay [2]; 13.3 µM in [3]; 2.19 µM in assay [4]; 9.02 µM in [5]; 2.36 µM in assay [6]. Moreover, the TGI in assay [7] is 1.33 µM; in assay [8], greater than 100 µM; in assay [9], 9.56 µM; in [10], 7.7 µM.

As for `OCCN1CCN(CCCN2c3ccccc3Sc3ccc(Cl)cc32)CC1`, the GI50 was 2.03 µM in assay [1]; 1.65 µM in [2]; 2.02 µM in assay [3]; 1.61 µM in assay [4]; 3.43 µM in [5]; 1.66 µM in assay [6]. Further, the GI50 in assay [7] is 1.76 µM; in assay [8] it was 3.8 µM; in [9] it was 5.04 µM; in assay [10], 3.83 µM. In addition, the TGI came to 4.04 µM in assay [1]; 3.08 µM in assay [2]; 4.7 µM in assay [3]; 3 µM in assay [4]; 17.7 µM in [5]; 3.36 µM in assay [6]. The TGI in [7] came to 3.29 µM; in assay [8], 13.6 µM; in assay [9], 16.2 µM; in [10], 18 µM.

With `COc1ccc2c(c1)/C(=C\c1c(-c3cc(OC)ccc3OC)nc3sc(C)cn13)C(=O)N2C`, the GI50 is 17.3 µM in [1]; 48.7 µM in assay [2]; 28.2 µM in [3]; 18.1 µM in [4]; 61.1 µM in [5]; 23.5 µM in assay [6]. Further, the GI50 in assay [7] was 17.3 µM; in assay [8] it was 28.2 µM; in [9], 56.9 µM; in assay [10], 38.5 µM. In addition, the TGI in [1] is 38.5 µM; in assay [2], greater than 100 µM; in assay [3], greater than 100 µM; in assay [4], 44.2 µM; in [5], greater than 100 µM; in [6] it was 45.9 µM. For the same compound, the TGI is 44.5 µM in [7], greater than 100 µM in assay [8], greater than 100 µM in [9] and greater than 100 µM in [10].

As to `CCOC(=O)C1Cc2c(cc3c4c(cccc24)N(C(C)=O)C3)N(C)C1` (stereo not given), the TGI in [1], in [2], in assay [3], in assay [4], in assay [5] and in assay [6] was greater than 100 µM in each case. Moreover, the TGI in [7], in [8], in [9] and in [10] was greater than 100 µM each time.

Consider `COc1cc2c(cc1OC)[C@@H](Nc1ccc(C#N)cc1)C1COC(=O)[C@@H]1C2c1cc(OC)c(O)c(OC)c1` (stereo not given in full), for which the GI50 in [1] is 3.7 µM and 1.49 µM; in assay [2] it was 2.49 µM and 1.06 µM; in [3], 0.472 µM and 1.55 µM; in [5], 16.4 µM and 6.9 µM; in assay [7], 0.372 µM and 0.167 µM; in assay [10], 0.159 µM and 0.0337 µM. In addition, the TGI in [1] is 23 µM and 5.86 µM; in assay [2], 6.73 µM and 7.87 µM; in assay [4], 15.6 µM; in assay [5], 95 µM and 62.5 µM; in assay [6], 95 µM and > 100 µM; in [7], 12.9 µM and 2.68 µM. Moreover, the TGI in assay [8] is 1.01 µM; in assay [9] it was greater than 100 µM; in [10], 1.47 µM and 0.257 µM.

Consider `Cc1cc2nc3c4cc(O)ccc4n(CCN(C)C)c3nc2cc1C`, for which the GI50 in assay [1] was 1.65 µM; in assay [2], 2.21 µM; in assay [3], 0.494 µM; in [4], 0.698 µM; in assay [5] it was 2.25 µM; in assay [6], 2.06 µM. Besides, the GI50 in assay [7] was 0.729 µM; in assay [8] it was 0.408 µM; in assay [9] it was 1.03 µM; in assay [10] it was 0.833 µM. The TGI in [1] came out at 3.69 µM; in [2], 6.13 µM; in [3], 4.73 µM; in [4], 3.99 µM; in assay [5] it was 9.96 µM; in [6], 5.2 µM. Besides, the TGI stood at 2.6 µM in assay [7], 10.3 µM in assay [8], 4.31 µM in assay [9] and 3.35 µM in assay [10].

Regarding `COC(=O)c1n[nH]c(C)c1N=NN(C)CCC#N`, the TGI was 61.9 µM in [1]; 62.4 µM in assay [2]; 34.4 µM in [3]; 26.9 µM in assay [4]; 29.2 µM in assay [5]; greater than 100 µM in assay [6]. For the same compound, the TGI in assay [7] came to 35.2 µM; in assay [8], 25.4 µM; in assay [9], 51.6 µM; in assay [10] it was 36.5 µM.

For `CC(C)(CN1CCCCC1)C(=O)/C=C/c1ccc(/C=C/C(=O)C(C)(C)CN2CCCCC2)cc1`, the TGI in assay [1] was 4.62 µM; in assay [2], 2.31 µM; in assay [3], 3.57 µM; in assay [4], 0.418 µM; in assay [5], 4.21 µM; in [6], 2.13 µM. Besides, the TGI in [7] was 2.35 µM; in [8] it was 0.669 µM; in [9], 5.05 µM; in assay [10] it was 2.04 µM.

In the case of `O=Nc1ccc(O)c(=O)cc1`, the GI50 in assay [1] was 2.61 µM; in [2], 1.82 µM; in assay [3] it was 2.82 µM; in [4], 1.08 µM; in assay [5], 6.93 µM; in assay [6] it was 2.26 µM. In addition, the GI50 in assay [7] was 2.01 µM; in assay [8], 0.906 µM; in assay [9], 3.74 µM; in assay [10] it was 3.04 µM. Also, the TGI was found to be 5.89 µM in assay [1]; 9.18 µM in [2]; 11 µM in assay [3]; 3.45 µM in [4]; 23.4 µM in assay [5]; 7.86 µM in assay [6]. For the same compound, the TGI in assay [7] was found to be 5.68 µM; in assay [8] it was 2.63 µM; in assay [9], 10.8 µM; in assay [10], 12 µM.
